From patent US5382525A, “Method of effecting increased performance of diagnostic enzyme reaction systems using noble gases” (American Air Liquide, priority 1992, dated 1995)

What was measured:
[1] = test system: Alkaline Phosphatase (EC 3.1.3.1); experiment: Alkaline Phosphatase [ALP/AP] Sigma Kit No. 245-10 gas run; assay type: biochemical, Chicken; set-up: Rate Difference / Yield Difference: unit not given here; details: for rate of the alkaline phosphatase-catalyzed reaction (FIGS. 1-3): 10°, 25° and 35° C., saturation with the gas; for Yield Difference / Rate Difference: relative to air
Description: Alkaline Phosphatase [ALP/AP] Sigma Kit. No. 245-10 Gas Run Protocol
Phosphatase, Alkaline P-8008
(Orthophosphoric-monoester phosphohydrolase [alkaline optimum]; EC 3.1.3.1)
From Chicken Intestine 5.1 Units/mg solid (1 g solid) Lot# 115F-3806
SIGMA Diagnostic Kit 245-10 (Procedure No. 245)
PRINCIPLE [drawing 1] The hydrolysis occurs at alkaline pH. The formation of p-nitrophenol can be observed as an increase in absorbance at 405 nm. The rate of increase directly proportional at ALP activity. […]
(§1) The following consists of example results obtained from gas runs. Negative numbers indicate an inhibition of the enzyme activity. Positive numbers indicate an enhancement of the enzyme activity

[2] = test system: Acid Phosphatase (EC 3.1.3.2); experiment: Acid Phosphatase Sigma Kit No. 435-A gas run; assay type: biochemical, Potato; details: for rate of the acid phosphatase-catalyzed reaction (FIG. 4): 10° C., saturation with the gas; for % Rate Difference / % Yield Difference: relative to air
Description: Acid Phosphatase Sigma Kit. No. 435-A Gas Run Protocol
(Orthophosphoric-monoester phosphohydrolase [acid optimum)]; EC 3.1.3.2)
From Potato 0.8 Units/mg solid (1 g solid) Lot# 17F-7285
SIGMA Diagnostic Kit 435-A (Procedure No. 435)
PRINCIPLE [drawing 3] Acid phosphatase [ACP] catalyzes the hydrolysis of α-Naphthyl phosphate to a-Naphthol and inorganic phosphate. α-Naphthol immediately reacts with fast red TR salt to produce a yellow chromophore with an absorbance maximum at 405 nm. The rate of increase in absorbance at 405 nm is directly proportional to ACP activity. […]
as §1

[3] = molecular target: T1, Urease EC 3.5.1.5 (Canavalia ensiformis, UniProt P07374); experiment: Urea Nitrogen Diagnostic Kit (640) stop-flow gas run; assay type: biochemical, jack beans; details: 37° C.; relative to air
T1 construct: purchased Sigma 640-5; host or cells: jack beans
T1 sequence (P07374 whole entry, looked up): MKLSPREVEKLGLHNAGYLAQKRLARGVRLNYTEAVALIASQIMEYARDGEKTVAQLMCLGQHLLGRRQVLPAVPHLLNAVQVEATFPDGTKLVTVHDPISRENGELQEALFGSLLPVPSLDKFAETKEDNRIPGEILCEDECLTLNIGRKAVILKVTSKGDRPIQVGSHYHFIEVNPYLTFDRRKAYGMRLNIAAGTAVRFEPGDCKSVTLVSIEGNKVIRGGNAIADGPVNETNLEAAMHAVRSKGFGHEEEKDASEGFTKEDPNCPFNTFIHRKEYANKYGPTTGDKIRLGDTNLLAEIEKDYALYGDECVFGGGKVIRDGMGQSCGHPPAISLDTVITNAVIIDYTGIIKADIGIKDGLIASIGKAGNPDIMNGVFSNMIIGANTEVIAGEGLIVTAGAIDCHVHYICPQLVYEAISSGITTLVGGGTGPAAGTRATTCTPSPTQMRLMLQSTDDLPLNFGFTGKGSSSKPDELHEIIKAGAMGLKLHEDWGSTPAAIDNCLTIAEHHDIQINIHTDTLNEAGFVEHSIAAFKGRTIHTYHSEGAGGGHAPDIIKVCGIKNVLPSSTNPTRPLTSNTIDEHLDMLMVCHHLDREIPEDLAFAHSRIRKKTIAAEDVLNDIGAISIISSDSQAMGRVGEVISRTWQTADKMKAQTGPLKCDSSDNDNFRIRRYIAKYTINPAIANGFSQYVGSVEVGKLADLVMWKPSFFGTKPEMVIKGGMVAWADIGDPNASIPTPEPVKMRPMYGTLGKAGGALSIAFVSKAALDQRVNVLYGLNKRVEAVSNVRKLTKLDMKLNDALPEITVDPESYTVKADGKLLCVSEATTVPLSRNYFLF
Description: Urea Nitrogen Diagnostic Kit (640) Protocol For Gas Run
Urea Nitrogen (Sigma Diagnostic Kit, Procedure No. 640)
Sigma No. 640-5 Buffered Urease from jack beans 100 units when prepared according to directions (3.33 units/ml). Sodium azide added as preservative. Store in refrigerator. Note expiration date: JUNE 1993
PRINCIPLE: Urea is hydrolyzed by urease to ammonia and carbon dioxide. [drawing 6] Ammonia then reacts with alkaline hypochlorite and phenol in the presence of a catalyst, sodium nitroprusside [Na2 Fe[CN]5 NO.2H2 O], to form indophenol. The concentration of ammonia is directly proportional to the absorbance of indophenol, which is measured spectrophotometrically at 570 nm. [drawing 7] Note: Ammonia free water (DI H2 O should be ok) is necessary for this procedure, Make sure to rinse everything with DI H2 O before use, If the blank has more than a trace of blue color ammonia contamination should be suspected.
PROCEDURE FOR STOP-FLOW GAS EXPERIMENT
In a 100 cc serum vial place 20 ml Urease soln (Soln A1). Stopper, seal and crimp. Bubble 400 ml of gas through (using the 500 ml gas-tight syringe). Superimpose 100 ml of gas, vial will be under positive pressure.
Sample 0.4 ml Urea Nitrogen Standard Solution 1 from gassed 3 cc vial. Add to the gassed 100 cc serum vial (containing 20 ml Soln A1). Start stop watch, gently swirl vial.
Take 0.5 ml samples every minute. Place the 0.5 ml sample into the corresponding 10 cc vial to stop the reaction. Inject immediately 1 ml Alkaline Hypochlorite Solution followed by 5 ml D.I. H2 O.
Let the 15×10 cc vials sit and develop color for 30 minutes. a 1 wavelength "scan" (see software) should be run: 3 ml per cuvette. Read vs a blank of 3 ml Soln B.
Spectrophotometric study procedure: 37° C.
as §1

[4] = molecular target: T2, Alcohol dehydrogenase EC 1.1.1.1 (Saccharomyces cerevisiae, UniProt P00330); experiment: Alcohol [Ethanol] Diagnostic Kit Sigma No. 332-UV gas run; assay type: biochemical, yeast; details: relative to air
T2 construct: purchased Sigma 330-1; host or cells: yeast
T2 sequence (P00330 1-348): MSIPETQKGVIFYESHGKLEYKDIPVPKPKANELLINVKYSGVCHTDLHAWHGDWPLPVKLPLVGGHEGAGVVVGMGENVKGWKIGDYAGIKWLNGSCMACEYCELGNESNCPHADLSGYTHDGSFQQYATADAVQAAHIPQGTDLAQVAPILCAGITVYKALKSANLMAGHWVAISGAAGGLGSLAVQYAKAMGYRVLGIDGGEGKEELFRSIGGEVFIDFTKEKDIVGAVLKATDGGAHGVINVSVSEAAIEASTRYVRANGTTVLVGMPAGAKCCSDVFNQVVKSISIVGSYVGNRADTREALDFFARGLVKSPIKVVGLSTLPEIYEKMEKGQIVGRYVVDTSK
Description: Alcohol [Ethanol] Diagnostic Kit Sigma Diagnostic Kit No. 332-UV Gas Run Protocol
SIGMA Diagnostic Kit 332-BT (Procedure No. 332-UV)
The NAD-ADH vials, when reconstituted according to the directions, contain approximately the following concentrations of active ingredients: NAD, 0.6 μmol/ml, alcohol dehydrogenase [yeast], 50 U/ml, and stabilizers. […]
Step 1: Prepare diluted Ethanol Standard Solution by mixing 4.0 ml Glycine Buffer Reagent (332-9) with 0.5 ml Ethanol Standard Solution (330-20). Cap until ready for use. 4 substrate concentrations: […]
Inject 1×3 cc of gas in silicone-sealed cuvettes No 2nd and 3rd 3 cc gas injection: NAD-ADH solution squirts back in the syringes because of foam formation due to bubbling. Store cuvettes overnight in refrigerator (0°-5° C.) under two 3 cc syringes, in the dark. […]
Remove the G1 cuvettes out from the fridge. Bubble 2×3 cc of gas. Place cuvettes (under two 3 cc syringes filled up with the appropriate gas) in cell holder.
Sample diluted Ethanol Standard Solution with 1 cc syringes, pick syringes into silicone, push plungers simultaneously, run timedrives.
as §1

[5] = test system: particulate sialidase; details: Sandhoff et al 1976; called questionable, highly impure enzymes; cited from earlier work
[6] = independent of oxygen partial pressure; Schreiner; cited from earlier work
[7] = 10 °C, positive = enhancement, negative = inhibition of enzyme activity

SMILES	rate of the alkaline phosphatase-catalyzed reaction (FIGS. 1-3) [1]	Yield Difference ([1]; 10 °C)	Rate Difference [1, 7]	Rate Difference ([1]; 25 °C)	Yield Difference ([1]; 25 °C)	Rate Difference ([1]; 35 °C)	Yield Difference ([1]; 35 °C)	rate of the acid phosphatase-catalyzed reaction (FIG. 4) [2]	% Rate Difference ([2]; 10 °C)	% Yield Difference ([2]; 10 °C)	% Rate Difference ([2]; 25 °C)	% Yield Difference ([2]; 25 °C)	% Rate Difference ([2]; 35 °C)	% Yield Difference ([2]; 35 °C)	% Rate Difference [3]	% Yield Difference [3]	% Rate Difference ([4]; 0.24% Ethanol, 10° C.)	% Yield Difference ([4]; 0.24% Ethanol, 10° C.)	% Rate Difference ([4]; 0.32% Ethanol, 10° C.)	% Yield Difference ([4]; 0.32% Ethanol, 10° C.)	also measured
[Ar] [Ar, argon]	improvement of the rate	33.3	33.3	3.0	3.0	30.4	30.4	improvement of the rate	8.4%	9.4%	12.2%	9.2%	-1.4%	-0.42%	9.4%	9.4%	9.0%	8.3%	5.2%	2.3%	% Rate Difference ([4]; 0.08% Ethanol, 10° C.): 8.8%; % Rate Difference ([4]; 0.24% Ethanol, 25° C.): -9.4%; % Yield Difference ([4]; 0.24% Ethanol, 25° C.): -6.6%
[Kr] [Kr, krypton]	improvement of the rate	1.7	1.7	9.1	9.1	4.3	4.3	improvement of the rate	18.1%	16.0%	13.3%	7.3%	1.4%	1.3%	0.0%	0.0%	11.9%	14.2%	8.6%	4.7%	% Rate Difference ([4]; 0.08% Ethanol, 10° C.): 2.9%; % Rate Difference ([4]; 0.24% Ethanol, 25° C.): -9.4%; % Yield Difference ([4]; 0.24% Ethanol, 25° C.): -4.4%
N#N [N2, Nitrogen, reference compound]		0	0	0	0	0	0								0.0%						
[Ne] [Ne, neon]															3.1%	3.1%			12.1%	3.9%	
[Xe] [Xe, xenon]	improvement of the rate	16.7	16.7	18.2	18.2	7.3	7.3	improvement of the rate	42.2%	39.2%	21.1%	14.7%	5.6%	4.2%	9.4%	9.4%	7.5%	10.0%	15.6%	10.2%	% Rate Difference ([4]; 0.24% Ethanol, 25° C.): -10.4%; % Yield Difference ([4]; 0.24% Ethanol, 25° C.): -8.0%; effect on activity of particulate sialidase [5]: enhance the activity
FC(F)(F)C(Cl)Br (centres unmarked) [halothane]																					effect on activity of particulate sialidase [5]: enhance the activity
[N-]=[N+]=O [nitrous oxide]																					inhibition per atmosphere of added gas [6]: 1.9 % inhibition per atmosphere; effect on activity of particulate sialidase [5]: enhance the activity
